From patent US8735141B2, “Vermiculture compositions” (M-I L.L.C., priority 2001, dated 2014)

Experiments:
[1] = Biodegradability (respiration rate and hydrocarbon loss in a reference moist soil); conditions: base fluids, 1 = most biodegradable
Protocol: (§1) Environmental tests were carried out on the base fluids, several muds, and a few samples of mud-coated cuttings before and after treatment in a bioreactor. The tests consisted of the following: (a) biodegradability (respiration rate and hydrocarbon loss in a reference moist soil); (b) phytoxicity (alfalfa seed emergence and root elongation); (c) earthworm survival; (d) springtail survival; and (e) Microtox (IC-50 on bioluminescent bacterium Photobacterium phosporeum).
Biodegradability and toxicity of Formulations A and N are contrasted with those of typical diesel/CaCl2/barite fluid in Table 4. The leading rate on the test soil in Table 4 was 6% w/w. […] In comparing formulation A with a similar formulation weighted with barite (instead of hematite), biodegradability and toxicity appear to be similar for the two fluids. However, a soil-enhancing iron source is considered desirable for its long-term potential benefits.
Biodegradability (Respiration rate and hydrocarbon loss in moist soil.)

[2] = system: Earthworms (Esenia fetida); test: Earthworm survival; type: in vivo; conditions: base fluids
Protocol: as §1
Earthworms (Esenia fetida) toxicity

alfalfa = test: Alfalfa phytotoxicity (seed emergence, root elongation, shoot mass); type: in vivo; conditions: base fluids; normalized to Control test values of 100
Protocol: as §1
Alfalfa seed emergence and root elongation.

[3] = Toxicity of various base fluids, overall rank; conditions: 1 = least toxic
Protocol: as §1
One of skill in the art will appreciate that the results of Table 1 indicate that diesel and the branched paraffins are more resistant to rapid biodegradation than the other four fluids.

## Isomerized tetradecene [Isomerized tetradecene C14 (IO)]
[1]
  Biodegradability Rank: 4
[2]
  Animal Toxicity % Earthworm Survival: 100%
alfalfa
  Alfalfa Phytotoxicity % Root Elongation: 144%
  Alfalfa Phytotoxicity % Seed Emergence: 101%
[3]
  Toxicity Rank: 4
